In patent US4570006A, “Amidine compound, process for producing same and anti-complement agent comprising same” (Torii & Co. Ltd., priority 1981, dated 1986):

Experiments:
complement = assay: Inhibition of complement mediated hemolysis; format: cell-based
Experimental: The complement mediated hemolysis is widely used as a means to determine the titration of complement. The principle of this method is based on the fact that hemolysis if caused by the activation of complement, when the latter is added to a complex (immune complex) of erythrocytes and the antibody thereof. The degree of hemolysis varies in proportion to the amount of complement added. Therefore, when a known amount of complement admixed with a Cl esterase inhibitor is used, the hemolysis must be suppressed in proportion to the inhibitory activity.
The anti-Cl esterase (Clr, Cls) activity was determined according to the method of Okamura et al. [K. Okamura, M. Muramatsu and B. Fujii, Biochem. Biophys. […] The figures in Table 2 have the following meanings: […]

Cls = molecular target: T1, Cls (Homo sapiens, UniProt P09871); assay: Anti-Cl esterase activity, Cls (ATEE hydrolysis); format: biochemical; conditions: hydrolysis of ATEE; read-out: Anti-Cl activity, Cls (50% inhibition)
T1 sequence (P09871 438-688 limits assumed): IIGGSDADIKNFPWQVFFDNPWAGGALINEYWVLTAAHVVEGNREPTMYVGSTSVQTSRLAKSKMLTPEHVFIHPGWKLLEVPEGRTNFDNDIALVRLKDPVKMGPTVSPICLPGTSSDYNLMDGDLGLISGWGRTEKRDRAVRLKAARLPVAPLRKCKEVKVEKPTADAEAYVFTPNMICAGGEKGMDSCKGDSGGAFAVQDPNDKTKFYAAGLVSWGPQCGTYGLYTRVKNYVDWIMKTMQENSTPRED
T1 sequence (P09871 16-437 limits assumed): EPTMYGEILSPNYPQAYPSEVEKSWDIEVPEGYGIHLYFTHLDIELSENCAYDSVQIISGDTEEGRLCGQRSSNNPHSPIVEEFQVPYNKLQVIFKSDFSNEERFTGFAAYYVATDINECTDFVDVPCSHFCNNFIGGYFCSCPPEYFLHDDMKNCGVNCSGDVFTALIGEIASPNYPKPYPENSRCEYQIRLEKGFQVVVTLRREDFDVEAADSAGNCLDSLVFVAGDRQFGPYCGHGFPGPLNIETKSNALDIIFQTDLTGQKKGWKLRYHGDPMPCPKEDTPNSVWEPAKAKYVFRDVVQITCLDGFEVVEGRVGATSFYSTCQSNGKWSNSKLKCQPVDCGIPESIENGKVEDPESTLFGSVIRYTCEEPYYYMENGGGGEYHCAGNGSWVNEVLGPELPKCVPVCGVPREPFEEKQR
Experimental: The anti-Cl esterase (Clr, Cls) activity was determined according to the method of Okamura et al. [K. Okamura, M. Muramatsu and B. Fujii, Biochem. Biophys. […] The figures in Table 2 have the following meanings:
Cls: Molar concentration of the test compound which inhibits 50% of the ability of Cls to hydrolyse ATEE (acetyltyrosin ethyl ester).

Clr = molecular target: T2, Clr (Homo sapiens, UniProt P00736); assay: Anti-Cl esterase activity, Clr (AAME hydrolysis); format: biochemical; conditions: hydrolysis of AAME; read-out: Anti-Cl activity, Clr (ID50)
T2 sequence (P00736 464-705 limits assumed): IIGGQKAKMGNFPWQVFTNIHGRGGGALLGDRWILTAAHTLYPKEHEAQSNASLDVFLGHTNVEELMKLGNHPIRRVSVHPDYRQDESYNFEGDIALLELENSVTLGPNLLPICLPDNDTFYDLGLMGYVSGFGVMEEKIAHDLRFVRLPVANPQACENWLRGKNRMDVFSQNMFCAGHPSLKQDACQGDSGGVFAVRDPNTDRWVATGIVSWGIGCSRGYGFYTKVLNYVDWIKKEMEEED
T2 sequence (P00736 18-463 limits assumed): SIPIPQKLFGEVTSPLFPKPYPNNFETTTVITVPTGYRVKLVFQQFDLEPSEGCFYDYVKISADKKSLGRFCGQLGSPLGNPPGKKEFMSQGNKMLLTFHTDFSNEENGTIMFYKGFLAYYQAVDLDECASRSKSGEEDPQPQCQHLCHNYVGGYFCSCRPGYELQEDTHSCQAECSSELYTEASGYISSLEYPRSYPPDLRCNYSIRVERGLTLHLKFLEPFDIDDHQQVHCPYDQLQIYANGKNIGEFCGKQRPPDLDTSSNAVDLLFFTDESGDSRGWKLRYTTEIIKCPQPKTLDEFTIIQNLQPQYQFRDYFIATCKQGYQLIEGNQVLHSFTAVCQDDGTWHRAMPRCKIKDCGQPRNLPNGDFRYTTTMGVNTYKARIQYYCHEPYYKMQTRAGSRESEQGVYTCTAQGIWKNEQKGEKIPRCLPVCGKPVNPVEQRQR
Experimental: The anti-Cl esterase ([…]) activity was determined according to the method of Okamura et al. [K. Okamura, M. Muramatsu and B. Fujii, Biochem. Biophys.

Compound | Inhibition of complement mediated hemolysis (%) (complement; compound at 1 × 10^-4) | Inhibition of complement mediated hemolysis (%) (complement; compound at 1 × 10^-5) | Inhibition of complement mediated hemolysis (%) (complement; compound at 1 × 10^-6) | Inhibition of complement mediated hemolysis (%) (complement; compound at 1 × 10^-7) | IC50 (Cls) [µM] | IC50 (Clr) [µM]
COc1cc(C(=N)N)ccc1OC(=O)CC(C)C [Compound 3, 4-amidino-2-methoxyphenyl isovalerate] | 44.4 | 5.0 | 18.0 | 0 |  | 
CCCCCCC(=O)Oc1ccc(C(=N)N)cc1C(=O)c1ccccc1 [Compound 4] | 95.0 | 67.2 | 8.7 | 0 |  | 
COc1cc(C(=N)N)ccc1OC(=O)C1CCCCC1 [Compound 9] |  | 16.2 | 2.5 | 0 |  | 
N=C(N)NCCCCCC(=O)Oc1ccc(C(=N)N)cc1C(=O)c1ccccc1 [Compound 15] | 98.8 | 81.7 | 12.7 | 0 |  | 
COc1cc(C(=N)N)ccc1OC(=O)CCc1ccccc1 [Compound 32, 4-amidino-2-methoxyphenyl 3-phenylpropionate] | 63.9 | 97.5 | 7.1 | 0 |  | 
Cc1cccc(C(=O)Oc2ccc(C(=N)N)cc2[N+](=O)[O-])c1 [Compound 36] | 100 | 100 | 100 | 90.4 |  | 
CC(C)Cc1ccc(C(C)C(=O)Oc2ccc(C(=N)N)cc2C(=O)c2ccccc2)cc1 (stereo not drawn) [Compound 40] | 87.5 | 68.1 | 7.8 | 2.0 |  | 
COc1ccccc1C(=O)Oc1ccc(C(=N)N)cc1C(=O)c1ccccc1 [Compound 41] | 66.7 | 9.3 | 0 | 0 |  | 
COc1cccc(CC(=O)Oc2ccc(C(=N)N)cc2OC)c1 [Compound 43] | 95.0 | 50.4 | 3.7 | 0 |  | 
CC(=O)c1ccc(C(=O)Oc2ccc(C(=N)N)cc2C(=O)c2ccccc2)cc1 [Compound 53] | 87.5 | 25.2 |  | 3.5 |  | 
CC(=O)Oc1ccc(CCC(=O)Oc2ccc(C(=N)N)cc2C(=O)c2ccccc2)cc1 [Compound 55, 4-amidino-2-benzoylphenyl 3-(4-acetyloxy)phenylpropionate] | 100 | 96.9 | 60.8 | 3.5 |  | 
N=C(N)c1ccc(OC(=O)c2ccc(CNC(=O)OCc3ccccc3)cc2)c(C(=O)c2ccccc2)c1 [Compound 63] | 100 | 100 | 98.0 | 94.5 |  | 
N=C(N)c1ccc(OC(=O)c2ccc(CN)cc2)c(C(=O)c2ccccc2)c1 [Compound 64] | 100 | 100 | 97.1 | 75.7 |  | 
COc1cc(C(=N)N)ccc1OC(=O)CCCc1ccc(N)cc1 [Compound 65, 4-amidino-2-methoxyphenyl 4-(4-aminophenyl)butyrate] | 81.7 | 9.8 | 0 | 0 |  | 
N=C(N)c1ccc(OC(=O)c2ccc(S(N)(=O)=O)cc2)c(C(=O)c2ccccc2)c1 [Compound 67] | 99.2 | 99.2 | 96.9 | 57.5 |  | 
N=C(N)c1ccc(OC(=O)c2ccc(S(N)(=O)=O)cc2)c([N+](=O)[O-])c1 [Compound 68] | 100 | 92.9 | 50.6 | 5.8 |  | 
COC(=O)c1cc(C(=N)N)ccc1OC(=O)c1ccc(NC(=N)N)cc1 [Compound 72] | 100 | 87.8 | 10.8 | 0 | 0.2 | 1
N=C(N)Nc1ccc(C(=O)Nc2cc(C(=N)N)ccc2OC(=O)c2ccc(NC(=N)N)cc2)cc1 [Compound 73, 4-amidino-2-(4-guanidinobenzoylamino)phenyl 4-guanidinobenzoate] | 100 | 100 | 89.9 | 46.1 |  | 
CCC(=Cc1ccc(NC(=N)N)cc1)C(=O)Oc1ccc(C(=N)N)cc1C(=O)c1ccccc1 [Compound 74] | 55.4 | 5.7 | 3.6 | 0 | 3 | > 10
CN(C(=N)N)c1ccc(C(=O)Oc2ccc(C(=N)N)cc2C(=O)c2ccccc2)cc1 [Compound 78] | 97.4 | 58.8 | 7.0 | 0 |  | > 10
CNC(=S)Nc1ccc(C(=O)Oc2ccc(C(=N)N)cc2C(=O)c2ccccc2)cc1 [Compound 79] | 95.1 | 96.8 | 81.7 | 48.1 |  | > 10
CC(C(=O)Oc1ccc(C(=N)N)cc1C(=O)c1ccccc1)c1ccc(Cl)cc1 (stereo not drawn) [Compound 86] | 100 | 97.1 | 53.6 | 11.0 |  | 
CC(=O)N[C@@H](CC(C)C)C(=O)N[C@@H](CC(C)C)C(=O)N[C@H](C=O)CCCNC(=N)N [Leupeptin, reference compound] | 97 | 52 | 0 | 0 |  | 
